Assay [1] deals with impaired learning after cerebral ischemia. The assay can be described thus: Passive avoidance learning impaired after cerebral ischemia. It counts as in vivo, Wistar rats. The method, then:
As in the case of the above test (3-1), Wistar rats were used to produce an experimental model for cerebral ischemia. In this experiment, the time during which cerebral ischemia was caused in the animals was 5 minutes. By this treatment, a passive avoidance learning impairments was induced. The passive avoidance learning was tested in accordance with the method in Experiment 1. The test compound was suspended in a 5% gum arabic vehicle. Test animals were administered with this suspension three times, i.e. one hour prior to causing cerebral ischemia, two hours prior to a passive avoidance learning and two hours prior to the test. The control group was administered with only a 5% gum arabic suspension.

For assay [2], the system named is motility depression (depression of consciousness level) associated with cerebral ischemia. The assay can be described thus: Recovery of motility after experimental cerebral ischemia. The assay is classed as in vivo, Wistar rats. The following applies: for Time to reappearance of spontaneous motility: control 81.5 ± 13.3. An excerpt:
Experimental cerebral ischemia was produced in accordance with the method of Pulsinelli et al. (Stroke 10, 267-272, 1979), using Wistar rats 8-week old. On the first day of the experiment, the rats were anesthetized with pentobarbital, and their occipital skin and muscle were incised along the median line, then their vertebral arteries were cauterized bilaterally, and their ventral necks were incised, the bilateral common carotid arteries were separated from the surrounding tissue, to which a thread was applied. On the next day, the common carotid arteries were drawn out by the use of this thread under anaesthetic conditions, and occluded with clips for 30 minutes. By this treatment, serious cerebral ischemia was induced. After 30 minutes' occlusion, the clip was removed to allow the cerebral circulation to resume. Time to recovery of righting reflex and time to reappearance of spontaneous motor activity were measured on individual test animals. The test compound was orally administered to the animals as a 5% suspension in gum arabic one hour before causing the cerebral ischemia and immediately after the resumption of cerebral circulation. The control group was orally administered with only a 5% gum arabic suspension.

The test system of assay [3] is Retention deficit induced by scopolamine. The assay can be described thus: Passive avoidance task, retention deficit induced by scopolamine. To be noted: scopolamine 1 mg/kg i.p.; for recovery of memory: orally administered 5% gum arabic suspension, in words; for Avoidance Time (%): p.o., 3 mg/kg, percent change rate relative to control (100), P < 0.05. It counts as in vivo, mice. From the text: Actions of the compound (8) obtained in Working Example 8 and the compound (9) obtained in Working Example 9 on amelioration of memory impairment was studied using the passive avoidance task shown below. Five-week old male mice were placed first in the light chamber of a passive avoidance learning apparatus consisting of light and dark chambers. The mice immediately moved into the dark chamber, then an unescapable electric shock (0.5 mA, 3 sec.) was applied to the animals. These animals retained for several weeks the memory that they received the electric shock. This memory retention was disrupted by the following procedure, and the effect of the compounds (8) and (9) was tested. Thirty minutes prior to the application of electric shock, these animals were each administered with scopolamine (1 mg/kg, i.p), then these mice lost the memory of this experience of an electric shock.
On the following day, a retention recovery test was conducted. These mice were again placed in the light chamber of the passive avoidance apparatus and the time until the animals moved into the dark chamber (avoidance time) was measured. These mice which lost the memory of the experience of an electric shock moved again into the dark chamber in 10 to 20 seconds. […] The effects of these test compounds were examined by comparing the average value (11-15 animals/group) of the period of time during which the mice stayed in the light chamber with that of the control group (administered only a suspension of 5% gum arabic containing no test compound). The results were expressed by the percent change rate relative to the mean value (100) in the control group (Table 5).

A further assay addresses T1, A1 receptor (Rattus norvegicus, UniProt P25099).
T1 construct: a rat was decapitated, and the cerebral cortex (A1 receptor); from tissue; host or cells: rat cerebral cortex membranes
T1 sequence (P25099 1-326): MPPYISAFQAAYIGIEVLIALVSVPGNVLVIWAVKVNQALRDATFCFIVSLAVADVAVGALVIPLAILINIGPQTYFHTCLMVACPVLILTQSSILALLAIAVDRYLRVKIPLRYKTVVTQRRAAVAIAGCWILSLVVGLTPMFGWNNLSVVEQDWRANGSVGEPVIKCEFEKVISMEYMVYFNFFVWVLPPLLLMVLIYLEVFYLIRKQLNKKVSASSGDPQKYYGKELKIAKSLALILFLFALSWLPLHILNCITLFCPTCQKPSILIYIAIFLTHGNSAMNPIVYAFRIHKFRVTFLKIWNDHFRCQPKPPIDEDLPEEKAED
The assay can be described thus: A1 receptor antagonism (inhibition of 3H-cyclohexyladenosine binding, rat cerebral cortex membranes). How it is done:
(§1) Preparation of membranes was performed in accordance with the method of Burns et al. described in Proc. Natl. Acad. Sci., 77, 5547 (1980). More specifically, a rat was decapitated, and the cerebral cortex (A1 receptor) or corpus striatun (A2 receptor) was suspended using Polyton in a Tris-HCl buffer solution of pH 7.7 (50 mM, 20 ml). This suspension was centrifuged at 48,000 g for 10 minutes, and the pellet was resuspended and centrifuged in a similar manner. The pellet was resuspended in a Tris-HCl buffer solution (50 mM), to which was added adenosine deaminase (2U/ml). The mixture was incubated at 37° C. for 30 minutes. This suspension was centrifuged and the pellet was stored at -20° C.
(§2) Using the above-mentioned pellet, adenosine antagonism (A1 and A2) was examined.
The above-mentioned pellet was thawed at room temperature and suspended in a Tris-HCl buffer solution. To the suspension (0.9 ml) were added ^3 H-cyclohexyladenosine (^3 H-CHA)(ca. 0.05 μCi, 0.1 ml) and the test drug (10 μl), and the mixture was incubated at 25° C. for 60 minutes. The reaction mixture was subjected to filtration with GF/B filter. The filter was washed four times with a Tris-HCl buffer solution. The radioactivity on the filter was measured by liquid scintillation. The nonspecific binding amount was measured in the presence of 10^-5 M of L-phenyl isopropyladenosine.

In another assay the target is T2, A2 receptor (Rattus norvegicus, UniProt P30543).
T2 construct: corpus striatun (A2 receptor); from tissue; host or cells: rat corpus striatum membranes
The experiment in a line: A2 receptor antagonism (inhibition of 3H-NECA binding, rat corpus striatum membranes). The following applies: in presence of 50 nM cyclopentyladenosine, read-out: A2 receptor (Ki, μM), binding-inhibition constant. How it is done: as §1, §2
The experiment was performed analogously to that for A1 receptor antagonism. Using ^3 H-adenosine-5'-ethylcarboxamide (^3 H-NECA; about 0.1 μCi) as ligand, the experiment was conducted in the presence of 50 nM of cyclopentyladenosine. The nonspecific binding amount was measured in the presence of 10^-4 M of cyclopentyladenosine.

[4] abbreviates: rat cerebral cortex, 3H-CHA, 25° C., 60 minutes, read-out: A1 receptor (Ki, μM), binding-inhibition constant.

The results in this text go back to US5032594A, “Tricyclic fused pyrimidine derivatives, their production and use” (Takeda Chemical Industries, Ltd., priority 1989, dated 1991).

Where two headings read alike, the source gives them in different places.

T2 sequence (P30543 whole entry): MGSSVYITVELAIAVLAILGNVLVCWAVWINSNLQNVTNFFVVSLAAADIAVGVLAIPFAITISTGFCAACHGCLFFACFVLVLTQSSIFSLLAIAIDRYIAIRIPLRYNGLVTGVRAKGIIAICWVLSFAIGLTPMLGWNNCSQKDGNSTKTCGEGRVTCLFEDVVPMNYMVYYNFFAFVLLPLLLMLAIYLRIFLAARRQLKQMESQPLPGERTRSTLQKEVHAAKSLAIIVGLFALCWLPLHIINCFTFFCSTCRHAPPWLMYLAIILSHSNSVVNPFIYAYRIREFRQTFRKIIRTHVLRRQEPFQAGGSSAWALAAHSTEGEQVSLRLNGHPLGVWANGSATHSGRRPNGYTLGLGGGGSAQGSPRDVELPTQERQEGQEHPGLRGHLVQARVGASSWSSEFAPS

As to `CCCn1c(=O)c2c(nn3cc[nH]c23)n(Cc2ccccc2)c1=O` [Working Example 8, 1-Benzyl-3-propyl-1,2,3,4-tetrahydro-5H-imidazo[2',1':5,1]pyrazolo[3,4-d]pyrimidine-2,4-dione], the Avoidance time result in assay [1] (3 mg/kg and 10 mg/kg, in words) was “prolonged the avoidance time, in the doses of 3 mg/kg and 10 mg/kg, dose-dependently”; in assay [1] (3 mg/kg, 5 minutes ischemia, median, control 17.5) it was 152.8 s; in assay [1] (10 mg/kg, 5 minutes ischemia, median, control 17.5, P < 0.05) it was 285.9 s. Moreover, the “Time to recovery of righting reflex” value in assay [2] (3 mg/kg oral, 30 minutes occlusion, average ± standard error, control 29.8 ± 5.9) was 21.0 ± 3.2 min; in assay [2] (10 mg/kg oral, 30 minutes occlusion, average ± standard error, control 29.8 ± 5.9), 16.7 ± 2.6 min; in assay [2] (in words), “tended to shorten the time to recovery of righting reflex dosedependently”. For the same compound, the “Time to reappearance of spontaneous motility” value in assay [2] (3 mg/kg oral, 30 minutes occlusion, average ± standard error) was 55.2 ± 6.5 min; in assay [2] (10 mg/kg oral, 30 minutes occlusion, average ± standard error, P < 0.05) it was 43.8 ± 4.7 min. Moreover, in assay [2] (in words), the “time to reappearance of spontaneous motor activity” value was “shortened the time to reappearance of spontaneous motor activity”. Further, in assay [3], the recovery of memory result is reported as “recovered the memory”.

With `CCCn1c(=O)c2c(nn3cc[nH]c23)n(Cc2ccc(Cl)cc2)c1=O` [Working Example 9], the recovery of memory result in assay [3] was “recovered the memory”.

As a reminder, the Ki is the dissociation constant of the complex between target and ligand, obtained from inhibition or displacement. Turning to `CCCn1c(=O)c2c3n(nc2n(Cc2ccccc2)c1=O)CCN3` [compound 1], the Ki on A1 receptor (setting [4]) is 0.12 µM; at A2 receptor, 3.3 µM.

Turning to `CCCn1c(=O)c2c3n(nc2n(Cc2ccc(Cl)cc2)c1=O)CCN3` [compound 2], the results for the Ki on A1 receptor (setting [4]) and on A2 receptor were 0.14 µM and 2.9 µM, respectively.

As for `CCCn1c(=O)c2c3n(nc2n(Cc2cccc(Cl)c2)c1=O)CCN3` [compound 3], the figures for the Ki on A1 receptor (setting [4]) and on A2 receptor were 0.19 µM and 4.2 µM, respectively.

As to `CCCn1c(=O)c2c3n(nc2n(Cc2ccccc2Cl)c1=O)CCN3` [compound 4], the Ki was found to be 0.27 µM at A1 receptor (setting [4]) and 6.5 µM on A2 receptor.

For `CCCCn1c(=O)n(Cc2ccccc2)c(=O)c2c3n(nc21)CCN3` [compound 5], the results for the Ki at A1 receptor (setting [4]) and on A2 receptor were 0.67 µM and 4.5 µM, respectively.

Regarding `CCCn1c(=O)c2c(nn3cc[nH]c23)n(Cc2ccccc2)c1=O` [compound 8], the Ki was 0.034 µM on A1 receptor (setting [4]) and 0.26 µM at A2 receptor. For the same compound, the “Avoidance Time (%)” value in assay [3] was 243%.

Consider `CCCn1c(=O)c2c(nn3cc[nH]c23)n(Cc2ccc(Cl)cc2)c1=O` [compound 9], for which the Ki at A1 receptor (setting [4]) is 0.05 µM; on A2 receptor it was 0.37 µM. In assay [3], the “Avoidance Time (%)” value is given as 262%.

Regarding `CCCn1c(=O)c2c(nn3cc[nH]c23)n(Cc2cccc(Cl)c2)c1=O` [compound 10], the inhibition constant Ki is 0.098 µM at A1 receptor (setting [4]) and 0.46 µM on A2 receptor.

Take `CCCn1c(=O)c2c(nn3cc[nH]c23)n(Cc2ccccc2Cl)c1=O` [compound 11]: the Ki was 0.092 µM on A1 receptor (setting [4]) and 1 µM at A2 receptor.

For `CCCCn1c(=O)n(Cc2ccccc2)c(=O)c2c1nn1cc[nH]c21` [compound 12], the Ki on A1 receptor (setting [4]) turned out to be 0.2 µM; on A2 receptor, 1.1 µM.

As for `CCCn1c(=O)c2c(nn3cc[nH]c23)n(CCc2ccccc2)c1=O` [compound 13], the Ki was determined as 0.53 µM on A1 receptor (setting [4]) and 16 µM on A2 receptor.

Turning to `CCCn1c(=O)c2c(nn3cc[nH]c23)n(CCCc2ccccc2)c1=O` [compound 14], the figures for the Ki on A1 receptor (setting [4]) and on A2 receptor were 0.11 µM and 2.5 µM, respectively.

Turning to `CCCn1c(=O)c2c(nn3cc(-c4ccccc4)[nH]c23)n(Cc2ccccc2)c1=O` [compound 15], the Ki at A1 receptor (setting [4]) was determined as 0.01 µM; on A2 receptor it was 0.28 µM.

Consider `CCCn1c(=O)c2c(nn3c(C)c(C)[nH]c23)n(Cc2ccccc2)c1=O` [compound 16], for which the Ki on A1 receptor (setting [4]) came out at 0.024 µM; at A2 receptor it was 0.43 µM.

Consider `CCCCc1cn2nc3c(c(=O)n(CCC)c(=O)n3Cc3ccccc3)c2[nH]1` [compound 17], for which the Ki came to 0.0051 µM on A1 receptor (setting [4]) and 0.35 µM at A2 receptor.

Consider `CCCn1c(=O)c2c(nn3c4c([nH]c23)CCCC4)n(Cc2ccccc2)c1=O` [compound 19], for which the results for the Ki on A1 receptor (setting [4]) and on A2 receptor were 0.027 µM and 0.19 µM, respectively.

As for `CCCn1c(=O)c2c(nn3cc(-c4cccc(OC)c4)[nH]c23)n(Cc2ccccc2)c1=O` [compound 21], the Ki on A1 receptor (setting [4]) came to 0.0069 µM; on A2 receptor, 0.12 µM.

As to `CCCn1c(=O)c2c(nn3cc(-c4ccc(OC)cc4)[nH]c23)n(Cc2ccccc2)c1=O` [compound 22], the figures for the Ki on A1 receptor (setting [4]) and on A2 receptor were 0.0047 µM and 0.21 µM, respectively.

With `CCCn1c(=O)c2c(nn3cc(-c4ccccc4OC)[nH]c23)n(Cc2ccccc2)c1=O` [compound 23], the Ki at A1 receptor (setting [4]) came out at 0.53 µM; at A2 receptor, 0.5 µM.

On to `CCCCOc1ccc(-c2cn3nc4c(c(=O)n(CCC)c(=O)n4Cc4ccccc4)c3[nH]2)cc1` [compound 24], for which the Ki at A1 receptor (setting [4]) is 0.053 µM; on A2 receptor, greater than 0.5 µM.

`CCCn1c(=O)c2c(nn3cc(-c4ccc(C)cc4)[nH]c23)n(Cc2ccccc2)c1=O` [compound 25]: the figures for the inhibition constant (Ki) on A1 receptor (setting [4]) and at A2 receptor were 0.58 µM and greater than 0.5 µM, respectively.

`CCCn1c(=O)c2c(nn3cc(-c4cccc(Cl)c4)[nH]c23)n(Cc2ccccc2)c1=O` [compound 26]: the Ki is 0.037 µM at A1 receptor (setting [4]) and greater than 0.5 µM on A2 receptor.

Turning to `CCCn1c(=O)c2c(nn3cc(-c4ccccc4Cl)[nH]c23)n(Cc2ccccc2)c1=O` [compound 27], the Ki on A1 receptor (setting [4]) was 0.58 µM; on A2 receptor, greater than 0.5 µM.

As to `CCCCn1c(=O)[nH]c(=O)c2c3n(nc21)CCN3` [compound 29], the figures for the Ki on A1 receptor (setting [4]) and on A2 receptor were 18 µM and 39 µM, respectively.

For `CCCn1c(=O)[nH]c2nn3cc[nH]c3c2c1=O` [compound 30], the Ki at A1 receptor and at A2 receptor was 0.42 µM each time.
